The source of these data is patent publication US8008291B2 (Mimetica Pty Ltd, priority 2008, dated 2011).

Bounds are passed on as bounds.

The target of this assay is T1, human MC5R (hMC5R) (Homo sapiens, UniProt P33032).
T1 construct: purchased Perkin Elmer RBXMC5M400UA
T1 sequence (P33032 whole entry): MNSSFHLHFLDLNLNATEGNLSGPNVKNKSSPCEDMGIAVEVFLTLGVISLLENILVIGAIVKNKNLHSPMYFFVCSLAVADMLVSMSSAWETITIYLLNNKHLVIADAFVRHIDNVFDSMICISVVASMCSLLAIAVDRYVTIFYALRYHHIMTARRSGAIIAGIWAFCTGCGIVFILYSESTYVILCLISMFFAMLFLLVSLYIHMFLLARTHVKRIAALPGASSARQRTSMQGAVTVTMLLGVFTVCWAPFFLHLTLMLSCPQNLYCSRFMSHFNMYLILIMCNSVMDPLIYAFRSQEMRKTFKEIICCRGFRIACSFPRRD
Briefly: Human MC5R radioligand binding assay (membranes, [125I] NDP-MSH displacement). Conditions: hMC5R binding; tested as trifluoroacetate or hydrochloride salts, or free bases; read-out: MC5R radioligand IC50. As for the experimental part:
Assessments of compound binding to human MC5R (hMC5R) ) by displacement of an ^125I-labeled NDP-MSH receptor ligand peptide were performed essentially as described in the data sheets produced by Perkin Elmer to accompany their frozen hMC5R membranes (Perkin Elmer catalog number RBXMC5M400UA).
[^125I] NDP-MSH: radiolabeled in house and purified by HPLC:
• Na^125I (0.5 mCi, 17.4 Ci/mg) was added to 50 μL sodium phosphate (50 mM, pH7.4) in an eppendorf tube precoated with IODOGEN. After incubation for 10 mins the phosphate buffer containing the iodine was added to NDP-MSH (10 ul at 1 mg/mL) in a separate eppendorf tube. This was incubated for a further 10 mins. The iodinated NDP-MSH was purified by HPLC on a Zorbax SB 300 column using solvent A: 0.05% TFA and solvent B: 90% acetonitrile 0.045% TFA with a linear gradient, 0-67% B over 60 mins. […] Resuspended membranes were kept on ice until they were added to the wells of the plate. Binding Protocol for 400 microassays per vial: • Assays were performed in 96 well polypropylene plates. […] This was incubated for 1 hr at 37° C.
`N=C(N)NCCC[C@@H]1N[C@H](CNC(=O)c2ccc3ccccc3c2)CCN(Cc2cc(Cl)cc(Cl)c2)C1=O` [Compound 14, N-(((3S,5S)-1-(3,5-dichlorobenzyl)-3-(3-guanidinopropyl)-2-oxo-1,4-diazepan-5-yl)methyl)-2-naphthamide]: the IC50 (as a rule, the point on the concentration scale where inhibition reaches its midpoint) is less than 100 nM.

Consider `CC[C@H](CN1CC[C@@H](CNC(=O)c2ccc3ccccc3c2)N[C@@H](CCN2CCCCC2)C1=O)c1ccccc1` [Compound 38, N-(((3S,5S)-2-oxo-1-((S)-2-phenylbutyl)-3-(2-(piperidin-1-yl)ethyl)-1,4-diazepan-5-yl)methyl)-2-naphthamide], for which the IC50 was less than 100 nM.

`CC[C@@H](CN1CC[C@@H](CNC(=O)c2ccc3ccccc3c2)N[C@@H](CCN2CCCCC2)C1=O)c1ccccc1` [Compound 39, N-(((3S,5S)-2-oxo-1-((R)-2-phenylbutyl)-3-(2-(piperidin-1-yl)ethyl)-1,4-diazepan-5-yl)methyl)-2-naphthamide]: the concentration for half-maximal inhibition (IC50) was less than 100 nM.

`CC(=O)N[C@@H](Cc1ccc2ccccc2c1)[C@@H]1CCN(CC(c2ccccc2)c2ccccc2)C(=O)[C@H](CCCNC(=N)N)N1` [Compound 79, N-((S)-1-((3S,5S)-1-(2,2-diphenylethyl)-3-(3-guanidinopropyl)-2-oxo-1,4-diazepan-5-yl)-2-(naphthalen-2-yl)ethyl)acetamide]: the 50% inhibitory concentration (IC50) was less than 10000 nM.

Take `CC(=O)N[C@@H](Cc1cnc[nH]1)C(=O)N[C@@H](Cc1ccc2ccccc2c1)[C@@H]1CCN(CC(c2ccccc2)c2ccccc2)C(=O)[C@H](CCCNC(=N)N)N1` [Compound 81, (S)-2-acetamido-N-((S)-1-((3S,5S)-1-(2,2-diphenylethyl)-3-(3-guanidinopropyl)-2-oxo-1,4-diazepan-5-yl)-2-(naphthalen-2-yl)ethyl)-3-(1H-imidazol-5-yl)propanamide]: the 50% inhibitory concentration (IC50) is less than 1000 nM.

For the molecule `CCCOC(=O)N[C@@H](Cc1ccc2ccccc2c1)[C@@H]1CCN(CC(c2ccccc2)c2ccccc2)C(=O)[C@H](CCCNC(=N)N)N1` [Compound 83, propyl (S)-1-((3S,5S)-1-(2,2-diphenylethyl)-3-(3-guanidinopropyl)-2-oxo-1,4-diazepan-5-yl)-2-(naphthalen-2-yl)ethylcarbamate], the IC50 was less than 1000 nM.

For `CC(=O)N[C@H](Cc1ccc2ccccc2c1)[C@@H]1CCN(CC(c2ccccc2)c2ccccc2)C(=O)[C@H](CCCNC(=N)N)N1` [Compound 85, N—((R)-1-((3S,5S)-1-(2,2-diphenylethyl)-3-(3-guanidinopropyl)-2-oxo-1,4-diazepan-5-yl)-2-(naphthalen-2-yl)ethyl)acetamide], the IC50 was less than 10000 nM.

As to `CC(=O)N[C@@H](Cc1c[nH]cn1)C(=O)N[C@H](Cc1ccc2ccccc2c1)[C@@H]1CCN(CC(c2ccccc2)c2ccccc2)C(=O)[C@H](CCCNC(=N)N)N1` [Compound 86, (S)-2-acetamido-N—((R)-1-((3S,5S)-1-(2,2-diphenylethyl)-3-(3-guanidinopropyl)-2-oxo-1,4-diazepan-5-yl)-2-(naphthalen-2-yl)ethyl)-3-(1H-imidazol-4-yl)propanamide], the IC50 is less than 1000 nM.

Turning to `CCCOC(=O)N[C@H](Cc1ccc2ccccc2c1)[C@@H]1CCN(CC(c2ccccc2)c2ccccc2)C(=O)[C@H](CCCNC(=N)N)N1` [Compound 87, propyl (R)-1-((3S,5S)-1-(2,2-diphenylethyl)-3-(3-guanidinopropyl)-2-oxo-1,4-diazepan-5-yl)-2-(naphthalen-2-yl)ethylcarbamate], the half-maximal inhibitory concentration (IC50) is less than 10000 nM.

In the case of `NCCC[C@@H]1N[C@H](CNC(=O)c2ccc(-c3ccccc3)cc2)CCN(CC(c2ccccc2)c2ccccc2)C1=O` [Compound 106, N-(((3S,5S)-3-(3-aminopropyl)-1-(2,2-diphenylethyl)-2-oxo-1,4-diazepan-5-yl)methyl)biphenyl-4-carboxamide], the IC50 was less than 1000 nM.

`NCCC[C@@H]1N[C@H](CNC(=O)c2cc3ccccc3[nH]2)CCN(CC(c2ccccc2)c2ccccc2)C1=O` [Compound 107, N-(((3S,5S)-3-(3-aminopropyl)-1-(2,2-diphenylethyl)-2-oxo-1,4-diazepan-5-yl)methyl)-1H-indole-2-carboxamide]: the 50% inhibitory concentration (IC50) is less than 1000 nM.

With `N=C(N)NCCC[C@@H]1N[C@H](CNC(=O)c2ccc(-c3ccccc3)cc2)CCN(CC(c2ccccc2)c2ccccc2)C1=O` [Compound 108, N-(((3S,5S)-1-(2,2-diphenylethyl)-3-(3-guanidinopropyl)-2-oxo-1,4-diazepan-5-yl)methyl)biphenyl-4-carboxamide], the IC50 is less than 100 nM.

As to `N=C(N)NCCC[C@@H]1N[C@H](CNC(=O)c2cc3ccccc3[nH]2)CCN(CC(c2ccccc2)c2ccccc2)C1=O` [Compound 109, N-(((3S,5S)-1-(2,2-diphenylethyl)-3-(3-guanidinopropyl)-2-oxo-1,4-diazepan-5-yl)methyl)-1H-indole-2-carboxamide], the IC50 was less than 1000 nM.

In the case of `NCCCC[C@@H]1N[C@H](CNC(=O)Cc2c[nH]c3ccccc23)CCN(Cc2cccc3ccccc23)C1=O` [Compound 120, N-(((3S,5S)-3-(4-aminobutyl)-1-(naphthalen-1-ylmethyl)-2-oxo-1,4-diazepan-5-yl)methyl)-2-(1H-indol-3-yl)acetamide], the half-inhibitory concentration (IC50) is less than 10000 nM.

In the case of `NCCCC[C@@H]1N[C@H](CNC(=O)Cc2ccc(-c3ccccc3)cc2)CCN(Cc2ccc3ccccc3c2)C1=O` [Compound 121, N-(((3S,5S)-3-(4-aminobutyl)-1-(naphthalen-2-ylmethyl)-2-oxo-1,4-diazepan-5-yl)methyl)-2-(biphenyl-4-yl)acetamide], the 50% inhibitory concentration (IC50) was less than 1000 nM.

As to `NCCCC[C@@H]1N[C@H](CNC(=O)[C@@H]2Cc3ccccc3CN2)CCN(CC(c2ccccc2)c2ccccc2)C1=O` [Compound 127, (S)—N-(((3S,5S)-3-(4-aminobutyl)-1-(2,2-diphenylethyl)-2-oxo-1,4-diazepan-5-yl)methyl)-1,2,3,4-tetrahydroisoquinoline-3-carboxamide], the IC50 is less than 10000 nM.

Regarding `NCCCC[C@@H]1N[C@H](CNC(=O)[C@H]2Cc3ccccc3CN2)CCN(CC(c2ccccc2)c2ccccc2)C1=O` [Compound 128, (R)—N-(((3S,5S)-3-(4-aminobutyl)-1-(2,2-diphenylethyl)-2-oxo-1,4-diazepan-5-yl)methyl)-1,2,3,4-tetrahydroisoquinoline-3-carboxamide], the IC50 is less than 1000 nM.

Take `NCCCC[C@@H]1N[C@H](CNC(=O)c2cc3ccccc3o2)CCN(CC(c2ccccc2)c2ccccc2)C1=O` [Compound 129, N-(((3S,5S)-3-(4-aminobutyl)-1-(2,2-diphenylethyl)-2-oxo-1,4-diazepan-5-yl)methyl)benzofuran-2-carboxamide]: the 50% inhibitory concentration (IC50) is less than 10000 nM.

As to `CNC(=N)NCCC[C@@H]1N[C@H](CNC(=O)[C@H]2Cc3ccccc3CN2)CCN(CC(c2ccccc2)c2ccccc2)C1=O` [Compound 130, (R)—N-(((3S,5S)-1-(2,2-diphenylethyl)-3-(3-(3-methylguanidino)propyl)-2-oxo-1,4-diazepan-5-yl)methyl)-1,2,3,4-tetrahydroisoquinoline-3-carboxamide], the IC50 is less than 10000 nM.

Regarding `N=C(N)NCCC[C@@H]1N[C@H](CNC(=O)[C@@H]2Cc3ccccc3CN2)CCN(CC(c2ccccc2)c2ccccc2)C1=O` [Compound 131, (S)—N-(((3S,5S)-1-(2,2-diphenylethyl)-3-(3-guanidinopropyl)-2-oxo-1,4-diazepan-5-yl)methyl)-1,2,3,4-tetrahydroisoquinoline-3-carboxamide], the IC50 was less than 10000 nM.

With `N=C(N)NCCC[C@@H]1N[C@H](CNC(=O)c2cc3ccccc3o2)CCN(CC(c2ccccc2)c2ccccc2)C1=O` [Compound 132, N-(((3S,5S)-1-(2,2-diphenylethyl)-3-(3-guanidinopropyl)-2-oxo-1,4-diazepan-5-yl)methyl)benzofuran-2-carboxamide], the 50% inhibitory concentration (IC50) was less than 10000 nM.

Regarding `N=C(N)NCCC[C@@H]1N[C@H](CNC(=O)[C@H]2Cc3ccccc3CN2)CCN(CC(c2ccccc2)c2ccccc2)C1=O` [Compound 134, (R)—N-(((3S,5S)-1-(2,2-diphenylethyl)-3-(3-guanidinopropyl)-2-oxo-1,4-diazepan-5-yl)methyl)-1,2,3,4-tetrahydroisoquinoline-3-carboxamide], the IC50 was less than 1000 nM.

Regarding `N=C(N)NCCC[C@@H]1N[C@H](CNC(=O)c2cc3ccccc3s2)CCN(CC(c2ccccc2)c2ccccc2)C1=O` [Compound 135, N-(((3S,5S)-1-(2,2-diphenylethyl)-3-(3-guanidinopropyl)-2-oxo-1,4-diazepan-5-yl)methyl)benzo[b]thiophene-2-carboxamide], the IC50 is less than 1000 nM.

Turning to `COc1ccccc1/C=C/C(=O)NC[C@@H]1CCN(CC(c2ccccc2)c2ccccc2)C(=O)[C@H](CCCNC(=N)N)N1` [Compound 169, (E)-N-(((3S,5S)-1-(2,2-diphenylethyl)-3-(3-guanidinopropyl)-2-oxo-1,4-diazepan-5-yl)methyl)-3-(2-methoxyphenyl)acrylamide], the IC50 is less than 1000 nM.

Turning to `C/C(=C\c1ccccc1)C(=O)NC[C@@H]1CCN(CC(c2ccccc2)c2ccccc2)C(=O)[C@H](CCCNC(=N)N)N1` [Compound 173, (E)-N-(((3S,5S)-1-(2,2-diphenylethyl)-3-(3-guanidinopropyl)-2-oxo-1,4-diazepan-5-yl)methyl)-2-methyl-3-phenylacrylamide], the IC50 is less than 1000 nM.
